Measured values as given in patent US12077503B2, “Substituted cyclic amides and their use as herbicides” (FMC CORPORATION, priority 2015, dated 2024).

How the values were obtained:
Type in all cases: in vivo
[1] = tested on: barnyardgrass (Echinochloa crus-galli); test: Test G Pre-Emergence Protocol; conditions: Echinochloa crus-galli, pre-emergence, 312 h, evaluated after 13 days; for pest or weed control at 15.625 g/ha: 15.625 g ai/ha, read-out: Barnyard grass damage rating (100=total damage to plant; 0=no damage to plant); for pest or weed control at 62.5 g/ha: 62.5 g ai/ha, 100=total damage to plant, 0=no damage to plant, read-out: plant damage rating, Barnyardgrass; for pest or weed control at 250 g/ha: 250 g ai/ha, read-out: Barnyardgrass damage rating (100=total damage to plant; 0=no damage to plant)
Method in brief: (§1)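 Glasshouse pre-emergence test: soil-sown seeds, sprayed after 1 d at 15.625, 62.5 or 250 g/ha. Conditions 24/16° C day/night, 14 h light, 65% humidity, watering twice daily. Rating 13 d post-spray (100 = total damage).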

[2] = tested on: corn (Zea mays); test: Test G Pre-Emergence Protocol; conditions: Zea mays, pre-emergence, 312 h, evaluated after 13 days; for plant injury at 15.625 g/ha: 15.625 g ai/ha; for plant injury at 15.625 g/ha / plant injury at 250 g/ha: read-out: Corn damage rating (100=total damage to plant; 0=no damage to plant); for plant injury at 62.5 g/ha: 62.5 g ai/ha, 100=total damage to plant, 0=no damage to plant, read-out: plant damage rating, Corn; for plant injury at 250 g/ha: 250 g ai/ha
Method in brief: as §1

[3] = tested on: giant foxtail (Setaria faberi); test: Test G Pre-Emergence Protocol; conditions: Setaria faberi, pre-emergence, 312 h, evaluated after 13 days; for pest or weed control at 15.625 g/ha: 15.625 g ai/ha; for pest or weed control at 15.625 g/ha / pest or weed control at 250 g/ha: read-out: Foxtail, Giant damage rating (100=total damage to plant; 0=no damage to plant); for pest or weed control at 62.5 g/ha: 62.5 g ai/ha, 100=total damage to plant, 0=no damage to plant, read-out: plant damage rating, Foxtail, Giant; for pest or weed control at 250 g/ha: 250 g ai/ha
Method in brief: as §1

[4] = tested on: ivy-leaved morning glory (Ipomoea hederacea); test: Test G Pre-Emergence Protocol; conditions: Ipomoea, pre-emergence, 312 h, evaluated after 13 days; for pest or weed control at 15.625 g/ha: 15.625 g ai/ha, read-out: Morning-glory, Ivy-leaved damage rating (100=total damage to plant; 0=no damage to plant); for pest or weed control at 62.5 g/ha: 62.5 g ai/ha, 100=total damage to plant, 0=no damage to plant, read-out: plant damage rating, Morningglory, Ivy-leaved; for pest or weed control at 250 g/ha: 250 g ai/ha, read-out: Morningglory, Ivy-leaved damage rating (100=total damage to plant; 0=no damage to plant)
Method in brief: as §1

[5] = tested on: redroot pigweed (Amaranthus retroflexus); test: Test G Pre-Emergence Protocol; conditions: Amaranthus retroflexus, pre-emergence, 312 h, evaluated after 13 days; for pest or weed control at 15.625 g/ha: 15.625 g ai/ha; for pest or weed control at 15.625 g/ha / pest or weed control at 250 g/ha: read-out: Pigweed, Redroot damage rating (100=total damage to plant; 0=no damage to plant); for pest or weed control at 62.5 g/ha: 62.5 g ai/ha, 100=total damage to plant, 0=no damage to plant, read-out: plant damage rating, Pigweed, Redroot; for pest or weed control at 250 g/ha: 250 g ai/ha
Method in brief: as §1

[6] = tested on: velvetleaf (Abutilon theophrasti); test: Test G Pre-Emergence Protocol; conditions: Abutilon theophrasti, pre-emergence, 312 h, evaluated after 13 days; for pest or weed control at 15.625 g/ha: 15.625 g ai/ha; for pest or weed control at 15.625 g/ha / pest or weed control at 250 g/ha: read-out: Velvetleaf damage rating (100=total damage to plant; 0=no damage to plant); for pest or weed control at 62.5 g/ha: 62.5 g ai/ha, 100=total damage to plant, 0=no damage to plant, read-out: plant damage rating, Velvetleaf; for pest or weed control at 250 g/ha: 250 g ai/ha
Method in brief: as §1

[7] = tested on: barnyardgrass (Echinochloa crus-galli); test: Test G Post-Emergence Protocol; conditions: Echinochloa crus-galli, post-emergence, 312 h; for pest or weed control at 15.625 g/ha: 15.625 g ai/ha, evaluated after 13 days (100=total damage to plant; 0=no damage to plant), read-out: Barnyardgrass damage rating; for pest or weed control at 62.5 g/ha: 62.5 g ai/ha, read-out: Barnyardgrass damage rating (100=total damage to plant; 0=no damage to plant); for pest or weed control at 62.5 g/ha / pest or weed control at 250 g/ha: evaluated after 13 days; for pest or weed control at 250 g/ha: 250 g ai/ha, read-out: damage to plant, Barnyardgrass (100=total damage to plant; 0=no damage to plant)
Method in brief: (§2)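 Foliar application was made 8 days after sowing, using an aqueous spray of the active in acetone/water (50:50) with 0.5% Tween 20, at doses of 15.625, 62.5 or 250 g/ha. Injury was assessed 13 days later, where 100 meant the plant was fully damaged.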

[8] = tested on: corn (Zea mays); test: Test G Post-Emergence Protocol; conditions: Zea mays, post-emergence, 312 h; for plant injury at 15.625 g/ha: 15.625 g ai/ha, evaluated after 13 days (100=total damage to plant; 0=no damage to plant), read-out: Corn damage rating; for plant injury at 62.5 g/ha: 62.5 g ai/ha, read-out: Corn damage rating (100=total damage to plant; 0=no damage to plant); for plant injury at 62.5 g/ha / plant injury at 250 g/ha: evaluated after 13 days; for plant injury at 250 g/ha: 250 g ai/ha, read-out: damage to plant, Corn (100=total damage to plant; 0=no damage to plant)
Method in brief: as §2

[9] = tested on: giant foxtail (Setaria faberi); test: Test G Post-Emergence Protocol; conditions: Setaria faberi, post-emergence, 312 h; for pest or weed control at 15.625 g/ha: 15.625 g ai/ha, evaluated after 13 days (100=total damage to plant; 0=no damage to plant), read-out: Foxtail, Giant damage rating; for pest or weed control at 62.5 g/ha: 62.5 g ai/ha, read-out: Foxtail, Giant damage rating (100=total damage to plant; 0=no damage to plant); for pest or weed control at 62.5 g/ha / pest or weed control at 250 g/ha: evaluated after 13 days; for pest or weed control at 250 g/ha: 250 g ai/ha, read-out: damage to plant, Foxtail, Giant (100=total damage to plant; 0=no damage to plant)
Method in brief: as §2

[10] = tested on: ivy-leaved morning glory (Ipomoea hederacea); test: Test G Post-Emergence Protocol; conditions: Ipomoea, post-emergence, 312 h; for pest or weed control at 15.625 g/ha: 15.625 g ai/ha, evaluated after 13 days (100=total damage to plant; 0=no damage to plant), read-out: Morningglory, Ivy-leaved damage rating; for pest or weed control at 62.5 g/ha: 62.5 g ai/ha, read-out: Morningglory, Ivy-leaved damage rating (100=total damage to plant; 0=no damage to plant); for pest or weed control at 62.5 g/ha / pest or weed control at 250 g/ha: evaluated after 13 days; for pest or weed control at 250 g/ha: 250 g ai/ha, read-out: damage to plant, Morningglory, Ivy-leaved (100=total damage to plant; 0=no damage to plant)
Method in brief: as §2

[11] = tested on: redroot pigweed (Amaranthus retroflexus); test: Test G Post-Emergence Protocol; conditions: Amaranthus retroflexus, post-emergence, 312 h; for pest or weed control at 15.625 g/ha: 15.625 g ai/ha, evaluated after 13 days (100=total damage to plant; 0=no damage to plant), read-out: Pigweed, Redroot damage rating; for pest or weed control at 62.5 g/ha: 62.5 g ai/ha, read-out: Pigweed, Redroot damage rating (100=total damage to plant; 0=no damage to plant); for pest or weed control at 62.5 g/ha / pest or weed control at 250 g/ha: evaluated after 13 days; for pest or weed control at 250 g/ha: 250 g ai/ha, read-out: damage to plant, Pigweed, Redroot (100=total damage to plant; 0=no damage to plant)
Method in brief: as §2

[12] = tested on: velvetleaf (Abutilon theophrasti); test: Test G Post-Emergence Protocol; conditions: Abutilon theophrasti, post-emergence, 312 h; for pest or weed control at 15.625 g/ha: 15.625 g ai/ha, evaluated after 13 days (100=total damage to plant; 0=no damage to plant), read-out: Velvetleaf damage rating; for pest or weed control at 62.5 g/ha: 62.5 g ai/ha, read-out: Velvetleaf damage rating (100=total damage to plant; 0=no damage to plant); for pest or weed control at 62.5 g/ha / pest or weed control at 250 g/ha: evaluated after 13 days; for pest or weed control at 250 g/ha: 250 g ai/ha, read-out: damage to plant, Velvetleaf (100=total damage to plant; 0=no damage to plant)
Method in brief: as §2

SMILES | pest or weed control at 15.625 g/ha [1] [%] | pest or weed control at 62.5 g/ha [1] [%] | pest or weed control at 250 g/ha [1] [%] | plant injury at 15.625 g/ha [2] [%] | plant injury at 62.5 g/ha [2] [%] | plant injury at 250 g/ha [2] [%] | pest or weed control at 15.625 g/ha [3] [%] | pest or weed control at 62.5 g/ha [3] [%] | pest or weed control at 250 g/ha [3] [%] | pest or weed control at 15.625 g/ha [4] [%] | pest or weed control at 62.5 g/ha [4] [%] | pest or weed control at 250 g/ha [4] [%] | pest or weed control at 15.625 g/ha [5] [%] | pest or weed control at 62.5 g/ha [5] [%] | pest or weed control at 250 g/ha [5] [%] | pest or weed control at 15.625 g/ha [6] [%] | pest or weed control at 62.5 g/ha [6] [%] | pest or weed control at 250 g/ha [6] [%] | pest or weed control at 15.625 g/ha [7] [%] | pest or weed control at 62.5 g/ha [7] [%] | also measured
Cc1ccc(NC(=O)[C@H]2C(=O)N(C)C[C@@H]2c2ccc(C(F)(F)F)cc2)c(C)c1C (racemic) [Compound 1448] | 0 | 0 | 0 | 0 | 0 | 0 | 0 | 20 | 60 | 0 | 0 | 0 | 0 | 0 | 0 | 0 | 0 | 0 | 0 | 0 | pest or weed control at 250 g/ha [7]: 0%; plant injury at 15.625 g/ha [8]: 0%; plant injury at 62.5 g/ha [8]: 0%; plant injury at 250 g/ha [8]: 10%; pest or weed control at 15.625 g/ha [9]: 0%; pest or weed control at 62.5 g/ha [9]: 0%; pest or weed control at 250 g/ha [9]: 0%; pest or weed control at 15.625 g/ha [10]: 0%; pest or weed control at 62.5 g/ha [10]: 0%; pest or weed control at 250 g/ha [10]: 0%; pest or weed control at 15.625 g/ha [11]: 0%; pest or weed control at 62.5 g/ha [11]: 0%; pest or weed control at 250 g/ha [11]: 30%; pest or weed control at 15.625 g/ha [12]: 0%; pest or weed control at 62.5 g/ha [12]: 0%; pest or weed control at 250 g/ha [12]: 0%
CN1C[C@H](c2ccc(C(F)(F)F)cc2)[C@@H](C(=O)Nc2ncccc2C#N)C1=O (racemic) [Compound 1433] | 0 | 0 | 0 | 0 | 0 | 0 | 0 | 0 | 0 | 0 | 0 | 0 | 0 | 0 | 0 | 0 | 0 | 0 | 0 | 0 | pest or weed control at 250 g/ha [7]: 0%; plant injury at 15.625 g/ha [8]: 0%; plant injury at 62.5 g/ha [8]: 0%; plant injury at 250 g/ha [8]: 0%; pest or weed control at 15.625 g/ha [9]: 0%; pest or weed control at 62.5 g/ha [9]: 0%; pest or weed control at 250 g/ha [9]: 0%; pest or weed control at 15.625 g/ha [10]: 0%; pest or weed control at 62.5 g/ha [10]: 0%; pest or weed control at 250 g/ha [10]: 0%; pest or weed control at 15.625 g/ha [11]: 0%; pest or weed control at 62.5 g/ha [11]: 0%; pest or weed control at 250 g/ha [11]: 0%; pest or weed control at 15.625 g/ha [12]: 0%; pest or weed control at 62.5 g/ha [12]: 0%; pest or weed control at 250 g/ha [12]: 0%
